# Earlier results, collected in patent US20110008439A1, “DULOXETIN COMPOSITION” (priority 2006, published 2011).
# Settings: pH values less than 2.5
structure (smiles),measurement,value
"CNCC[C@H](Oc1cccc2ccccc12)c1cccs1 [Duloxetine, duloxetine]",Stability in solution,unstable
